This passage reports EC50 results from patent US20240315299A1, “AMIDE COMPOUNDS AND THEIR USE AS FLAVOR MODIFIERS” (FIRMENICH INCORPORATED, priority 2021, published 2024).

pEC50: −log10 of the molar value.

The target of this test is T1, T1R umami taste receptor (Homo sapiens, UniProt Q7RTX0+Q7RTX1).
T1 sequence (Q7RTX1 21-841): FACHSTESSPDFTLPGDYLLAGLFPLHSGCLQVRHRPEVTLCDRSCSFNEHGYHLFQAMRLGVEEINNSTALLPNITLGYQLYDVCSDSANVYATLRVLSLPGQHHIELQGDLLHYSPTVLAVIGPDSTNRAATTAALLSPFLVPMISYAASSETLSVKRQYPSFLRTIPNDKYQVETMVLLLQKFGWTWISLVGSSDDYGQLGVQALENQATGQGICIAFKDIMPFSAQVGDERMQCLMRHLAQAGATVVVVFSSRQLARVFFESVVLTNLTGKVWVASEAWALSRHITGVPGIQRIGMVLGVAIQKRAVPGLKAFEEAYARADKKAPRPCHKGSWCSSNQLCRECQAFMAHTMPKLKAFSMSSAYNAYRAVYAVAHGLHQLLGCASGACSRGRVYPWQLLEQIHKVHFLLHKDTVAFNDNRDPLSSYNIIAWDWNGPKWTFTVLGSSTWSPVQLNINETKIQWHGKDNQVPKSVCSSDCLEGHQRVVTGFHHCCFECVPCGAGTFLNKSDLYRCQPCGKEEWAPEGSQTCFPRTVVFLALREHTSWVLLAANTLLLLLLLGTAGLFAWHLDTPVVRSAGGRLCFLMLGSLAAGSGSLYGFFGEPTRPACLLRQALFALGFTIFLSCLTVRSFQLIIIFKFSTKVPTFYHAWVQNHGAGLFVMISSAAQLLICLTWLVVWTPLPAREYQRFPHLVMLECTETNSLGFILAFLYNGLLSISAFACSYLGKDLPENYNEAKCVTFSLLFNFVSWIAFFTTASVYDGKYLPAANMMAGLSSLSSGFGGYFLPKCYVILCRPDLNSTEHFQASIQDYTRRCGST
T1 sequence (Q7RTX0 21-852): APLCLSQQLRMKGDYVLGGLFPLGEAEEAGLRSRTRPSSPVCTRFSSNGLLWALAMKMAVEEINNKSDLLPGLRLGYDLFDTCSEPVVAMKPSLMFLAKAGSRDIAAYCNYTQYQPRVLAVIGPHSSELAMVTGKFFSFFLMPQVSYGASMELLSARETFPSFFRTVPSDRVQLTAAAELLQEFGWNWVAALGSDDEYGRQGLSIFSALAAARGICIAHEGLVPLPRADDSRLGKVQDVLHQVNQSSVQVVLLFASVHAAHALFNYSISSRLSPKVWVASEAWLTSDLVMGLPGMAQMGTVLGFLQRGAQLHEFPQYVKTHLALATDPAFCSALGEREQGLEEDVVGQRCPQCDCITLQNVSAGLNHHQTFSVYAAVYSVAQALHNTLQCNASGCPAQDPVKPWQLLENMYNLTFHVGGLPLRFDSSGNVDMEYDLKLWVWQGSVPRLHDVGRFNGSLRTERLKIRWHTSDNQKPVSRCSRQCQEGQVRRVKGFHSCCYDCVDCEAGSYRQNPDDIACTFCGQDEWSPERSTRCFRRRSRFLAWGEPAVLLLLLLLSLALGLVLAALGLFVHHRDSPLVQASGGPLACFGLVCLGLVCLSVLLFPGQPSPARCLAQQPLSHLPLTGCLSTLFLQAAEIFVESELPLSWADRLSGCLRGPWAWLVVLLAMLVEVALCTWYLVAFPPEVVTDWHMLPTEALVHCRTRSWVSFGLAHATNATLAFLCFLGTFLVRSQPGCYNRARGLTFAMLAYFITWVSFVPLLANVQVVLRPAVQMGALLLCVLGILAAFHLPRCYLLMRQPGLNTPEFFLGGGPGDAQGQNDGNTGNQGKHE
Description: in vitro cell-based assay, enhancement of MSG binding at umami taste receptor. As to conditions: cells that express the T1R umami taste receptor, from dose-binding curves. On the procedure:
Each of Compounds 101-135, as well as Compounds 168 and 169, (as set forth in Table 1) was synthesized according to one of the general procedures set forth above in Examples 1 to 4. Thereafter, the compounds were tested in an in vitro cell-based assay having cells that express the T1R umami taste receptor. Dose-binding curves were recorded and the EC50 was determined for enhancement of MSG binding. Table 2 sets forth the calculated EC50 values for certain tested compounds.

What is called pEC50 is the EC50 on a negative log10 scale, so that one unit is a factor of ten. In the case of `C/C=C(\C)C(=O)NCCCCNC(=O)/C=C/c1cccc(OC)c1` [Compound 128, (E)-N-(4-((E)-3-(3-methoxyphenyl)acrylamido)butyl)-2-methylbut-2-enamide], the negative logarithm of the EC50 (pEC50) is 5.70.

On to `O=C(/C=C/c1ccccc1)NCCCCNC(=O)c1ccccc1` [Compound 123, N-(4-cinnamamidobutyl)benzamide], for which the pEC50 is < 4.30.

With `C/C=C(\C)C(=O)NCCCCNC(=O)/C=C/c1ccc(OC)c(OC)c1` [Compound 132, (E)-N-(4-((E)-3-(3,4-dimethoxyphenyl)acrylamido)butyl)-2-methylbut-2-enamide], the negative logarithm of the EC50 (pEC50) was 5.40.

`C/C=C(\C)C(=O)NCCCCNC(=O)/C=C/c1ccc(O)c(OC)c1` [Compound 135, (E)-N-(4-((E)-3-(4-hydroxy-3-methoxyphenyl)acrylamido)butyl)-2-methylbut-2-enamide]: the pEC50 was < 4.30.

As for `CC/C=C(\C)C(=O)NCCCCNC(=O)/C=C/c1ccccc1` [Compound 118, (E)-N-(4-cinnamamidobuty1)-2-methylpent-2-enamide], the negative-log EC50 (pEC50) was < 4.30.

Turning to `C/C=C(\C)C(=O)NCCCCNC(=O)c1ccc(C)cc1` [Compound 102], the pEC50 is 5.10.

Turning to `C/C=C(\C)C(=O)NCCCCNC(=O)/C=C/c1ccc(OC)cc1` [Compound 129, (E)-N-(4-((E)-3-(4-methoxyphenyl)acrylamido)butyl)-2-methylbut-2-enamide], the pEC50 is > 6.00.

On to `CC(=O)OC/C=C(\C)C(=O)NCCCCNC(=O)/C=C/c1ccccc1` [Compound 168, (E)-4-((4-cinnamamidobutyl)amino)-3-methyl-4-oxobut-2-en-1-yl acetate], for which the pEC50 is > 6.00.

`CC(C)=CC(=O)NCCCCNC(=O)/C=C/c1ccccc1` [Compound 116, N-(4-cinnamamidobutyl)-3-methylbut-2-enamide]: the pEC50 is < 4.30.

Take `C/C=C(\C)C(=O)NCCCCNC(=O)c1cc(C)c(C)c(C)c1` [Compound 104]: the pEC50 was 5.70.

With `C/C=C(\C)C(=O)NCCCCNC(=O)/C=C/c1ccccc1` [Compound 115, (E)-N-(4-cinnamamidobuty1)-2-methylbut-2-enamide], the pEC50 is > 5.10.

As for `COc1ccc(C(=O)OC/C=C(\C)C(=O)NCCCCNC(=O)/C=C/c2ccccc2)cc1` [Compound 169, (E)-4-((4-cinnamamidobutyl)amino)-3-methyl-4-oxobut-2-en-1-yl 4-methoxy benzoate], the pEC50 was 4.64.

Consider `CC(C)C(=O)NCCCCNC(=O)/C=C/c1ccccc1` [Compound 108], for which the pEC50 is < 4.30.

On to `C/C(=C\CO)C(=O)NCCCCNC(=O)/C=C/c1ccccc1` [Compound 119, (E)-N-(4-cinnamamidobutyl)-4-hydroxy-2-methylbut-2-enamide], for which the pEC50 is > 4.92.

For `C/C=C(/C)C(=O)NCCCCNC(=O)/C=C/c1ccccc1` [Compound 114], the pEC50 is < 4.30.

`C/C=C(\C)C(=O)NCCCCNC(=O)c1ccc(OC)cc1` [Compound 105]: the pEC50 was 4.92.

On to `C/C=C(\C)C(=O)NCCCCNC(=O)/C=C/c1ccc(OC)cc1OC` [Compound 131, (E)-N-(4-((E)-3-(2,4-dimethoxyphenyl)acrylamido)butyl)-2-methylbut-2-enamide], for which the pEC50 is > 6.00.

On to `C/C=C(\C)C(=O)NCCCCNC(=O)/C=C/c1ccc(OC)c(O)c1` [Compound 134, (E)-N-(4-((E)-3-(3-hydroxy-4-methoxyphenyl)acrylamido)butyl)-2-methylbut-2-enamide], for which the pEC50 is < 4.30.

With `CCC(C)C(=O)NCCCCNC(=O)/C=C/c1ccccc1` (stereo not shown) [Compound 109], the pEC50 is < 4.30.

`CC(C)=C(C)C(=O)NCCCCNC(=O)/C=C/c1ccccc1` [Compound 117, N-(4-cinnamamidobutyl)-2,3-dimethylbut-2-enamide]: the pEC50 was < 4.30.

`C/C=C(\C)C(=O)NCCCCNC(=O)c1ccc2c(c1)OCO2` [Compound 106]: the negative logarithm of the EC50 (pEC50) is 5.22.

`C/C=C(\C)C(=O)NCCCCNC(=O)/C=C/c1ccc(OCC)cc1` [Compound 130, (E)-N-(4-((E)-3-(4-ethoxyphenyl)acrylamido)butyl)-2-methylbut-2-enamide]: the pEC50 is > 6.00.

Take `CC(=O)NCCCCNC(=O)/C=C/c1ccccc1` [Compound 107]: the pEC50 was < 4.30.

In the case of `O=C(/C=C/c1ccccc1)NCCCCNC(=O)/C=C/c1ccccc1` [Compound 122, (2E,2′E)-N,N′-(butane-1,4-diyl)bis(3-phenylacrylamide)], the negative logarithm of the EC50 (pEC50) is < 4.30.

With `C/C=C(\C)C(=O)NCCCCNC(=O)/C=C/c1ccc2c(c1)OCO2` [Compound 133, (E)-N-(4-((E)-3-(benzo[d][1,3]dioxol-5-yl)acrylamido)butyl)-2-methylbut-2-enamide], the pEC50 is 4.70.

As to `C/C=C(\C)C(=O)NCCCCNC(=O)/C=C/c1ccccc1OC` [Compound 127, (E)-N-(4-((E)-3-(2-methoxyphenyl)acrylamido)butyl)-2-methylbut-2-enamide], the pEC50 is 5.70.

`O=C(/C=C/c1ccccc1)NCCCCNC(=O)c1ccc(O)cc1` [Compound 126, N-(4-cinnamamidobutyl)-4-hydroxybenzamide]: the pEC50 was < 4.30.

Consider `C/C=C(\C)C(=O)NCCCCNC(=O)c1ccc(C)c(C)c1` [Compound 103], for which the pEC50 was > 6.00.
